Data as given in patent US20220378923A1, “BET DEGRADER” (KYOWA KIRIN CO., LTD., priority 2019, published 2022).
Where two headings read alike, the source gives them in different places.

Assays:
SU-DHL-4 cells = test: Inhibitory effect on cell viability in SU-DHL-4 cell line (Test Example 1); format: cell-based, human; conditions: 72 hours; for IC50: SU-DHL-4 (wild type) cells, calculated using the measurement results of test example 1, read-out: SU-DHL-4 WT IC50; for IC90: SU-DHL-4 cells, Cell Counting Kit-8, concentration showing 90% inhibition of cell viability, read-out: SU-DHL-4 Cell Viability Inhibition Rate IC90
How it was run: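 SU-DHL-4 cells were grown at 37° C. under 5% CO2 in RPMI1640 with 10 vol % heat-inactivated FBS plus penicillin/streptomycin, seeded and precultured for 18 to 25 hours, then exposed to test compound at 0.1 vol % DMSO for 72 hours. Viability was read with Cell Counting Kit-8 by absorbance at 450 nm.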

[1] = system: MYC mRNA expression in SU-DHL-4 cells; test: Suppressive effect on MYC mRNA expression (Test Example 2); format: cell-based, human; conditions: test compound 100 nmol/L, 6 hours, qRT-PCR corrected by ACTB, GAPDH; for inhibition at 0.1 µM: Homo sapiens, HPRT1, read-out: Suppression Rate of MYC mRNA Expression (%); for Suppression Rate of MYC mRNA Expression (%): HPRT1
How it was run: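 SU-DHL-4 cells were treated for 6 h at 37 °C with compound (0.1% DMSO final). MYC mRNA was measured by TaqMan qRT-PCR and normalised to the geometric mean of ACTB, GAPDH and HPRT1. Suppression was calculated relative to untreated wells.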

| SMILES | IC50 (SU-DHL-4 cells; Homo sapiens) [nM] | IC90 (SU-DHL-4 cells; Homo sapiens) [nM] | IC50 (SU-DHL-4 cells) [nM] | IC90 (SU-DHL-4 cells) [nM] | inhibition at 0.1 µM [1] [%] | Suppression Rate of MYC mRNA Expression (%) [1] [%] |
| --- | --- | --- | --- | --- | --- | --- |
| CCC(=O)N1c2ccccc2[C@H](Nc2ccc(NC(=O)CCCC(=O)NC3CCN(Cc4cc(O)cc(-c5c(C)noc5C)c4)CC3)cc2)C[C@@H]1C [Compound 12c, N^1-(1-(3-(3,5-Dimethylisoxazol-4-yl)-5-hydroxybenzyl)piperidin-4-yl)-N^5-(4-(((2S,4R)-2-methyl-1-propionyl-1,2,3,4-tetrahydroquinolin-4-yl)amino)phenyl)glutaramide] | 0.22 | 0.56 |  |  | 97.8 |  |
| CCC(=O)N1c2ccccc2[C@H](Nc2ccc(SCCNC(=O)c3ccc(C4=N[C@@H](CC(=O)OCCN(C)C)c5nnc(C)n5-c5sc(C)c(C)c54)cc3)cc2)C[C@@H]1C [Compound 13a, 2-(Dimethylamino)ethyl 2-((S)-2,3,9-trimethyl-4-(4-((2-((4-(((2S,4R)-2-methyl-1-propionyl-1,2,3,4-tetrahydroquinolin-4-yl)amino)phenyl)thio)ethyl)carbamoyl)phenyl)-6H-thieno[3,2-f][1,2,4]triazolo[4,3-a][1,4]diazepin-6-yl)acetate] | 0.26 |  |  |  | 97.6 |  |
| CCC(=O)N1c2ccccc2[C@H](Nc2ccc(C(=O)NCCCNC(=O)c3ccc(C4=N[C@@H](CC(=O)OC5CCC(O)CC5)c5nnc(C)n5-c5sc(C)c(C)c54)cc3)cc2)C[C@@H]1C (stereo partly drawn) [Compound 13d, 4-Hydroxycyclohexyl 2-((S)-2,3,9-trimethyl-4-(4-((3-(4-(((2S,4R)-2-methyl-1-propionyl-1,2,3,4-tetrahydroquinolin-4-yl)amino)benzamide)propyl)carbamoyl)phenyl)-6H-thieno[3,2-f][1,2,4]triazolo[4,3-a][1,4]diazepin-6-yl)acetate] |  |  | 0.53 | 1.19 |  | 97.2 |
| CCC(=O)N1c2ccccc2[C@H](Nc2ccc(C(=O)NCCCNC(=O)c3ccc(C4=N[C@@H](CC(=O)OCCCOC)c5nnc(C)n5-c5sc(C)c(C)c54)cc3)cc2)C[C@@H]1C [Compound 13h, 3-Methoxypropyl 2-((S)-2,3,9-trimethyl-4-(4-((3-(4-(((2S,4R)-2-methyl-1-propionyl-1,2,3,4-tetrahydroquinolin-4-yl)amino)benzamide)propyl)carbamoyl)phenyl)-6H-thieno[3,2-f][1,2,4]triazolo[4,3-a][1,4]diazepin-6-yl)acetate] |  |  | 0.3 | 0.34 |  | 97.4 |

The remaining molecules from weak to strong by IC50 (SU-DHL-4 cells; Homo sapiens), led by results:

| IC50 (SU-DHL-4 cells; Homo sapiens) [nM] | IC90 (SU-DHL-4 cells; Homo sapiens) [nM] | IC50 (SU-DHL-4 cells) [nM] | IC90 (SU-DHL-4 cells) [nM] | SMILES | inhibition at 0.1 µM [1] [%] | Suppression Rate of MYC mRNA Expression (%) [1] [%] |
| --- | --- | --- | --- | --- | --- | --- |
| 0.21 |  |  |  | Cc1sc2c(c1C)C(c1ccc(NC(=O)C#CCNC(=O)c3ccc(C4=NCc5nnc(C)n5-c5sc(C)c(C)c54)cc3)cc1)=NCc1nnc(C)n1-2 [Compound 14e, N-(4-Oxo-4-((4-(2,3,9-trimethyl-6H-thieno[3,2-f][1,2,4]triazolo[4,3-a][1,4]diazepin-4-yl)phenyl)amino)but-2-yn-1-yl)-4-(2,3,9-trimethyl-6H-thieno[3,2-f][1,2,4]triazolo[4,3-a][1,4]diazepin-4-yl)benzamide] | 96.7 |  |
| 0.1 |  |  |  | CCC(=O)N1c2ccccc2[C@H](Nc2ccc(NC(=O)COCC(=O)Nc3ccc(C4=NCc5nnc(C)n5-c5sc(C)c(C)c54)cc3)cc2)C[C@@H]1C [Compound 14d, N-(4-(((2S,4R)-2-Methyl-1-propionyl-1,2,3,4-tetrahydroquinolin-4-yl)amino)phenyl)-2-(2-oxo-2-((4-(2,3,9-trimethyl-6H-thieno[3,2-f][1,2,4]triazolo[4,3-a][1,4]diazepin-4-yl)phenyl)amino)ethoxy)acetamide] | 97.4 |  |
| 0.017 |  |  |  | CCC(=O)N1c2ccccc2[C@H](Nc2ccc(-c3cnn(CC(=O)Nc4ccc(C5=NCc6nnc(C)n6-c6sc(C)c(C)c65)cc4)c3)cc2)C[C@@H]1C [Compound 14a, 2-(4-(4-(((2S,4R)-2-Methyl-1-propionyl-1,2,3,4-tetrahydroquinolin-4-yl)amino)phenyl)-1H-pyrazol-1-yl)-N-(4-(2,3,9-trimethyl-6H-thieno[3,2-f][1,2,4]triazolo[4,3-a][1,4]diazepin-4-yl)phenyl)acetamide] | 97.1 |  |
